Reference: patent publication US9765075B2, “Substituted bridged urea analogs as sirtuin modulators” (GLAXOSMITHKLINE LLC, priority 2013, dated 2017)
Numbering of substitutions follows the chain as printed. pEC50: −log10 of the molar value.

Tests used:
Assay in all cases: SIRT1 activation dose-response, OAcADPr assay with Ac-p53(W5) substrate
Type in all cases: biochemical
full-length hSIRT1 Q222A = target: T1, full-length hSIRT1 Q222A (Homo sapiens, UniProt Q96EB6, Q222A); details: for pEC50: hSIRT1 Q222A, activation dose-response, Ac-p53(W5) substrate
T1 construct: The following point mutants of full-length hSIRT1 were generated; made in house
T1 sequence (Q96EB6 1-747 Q222A): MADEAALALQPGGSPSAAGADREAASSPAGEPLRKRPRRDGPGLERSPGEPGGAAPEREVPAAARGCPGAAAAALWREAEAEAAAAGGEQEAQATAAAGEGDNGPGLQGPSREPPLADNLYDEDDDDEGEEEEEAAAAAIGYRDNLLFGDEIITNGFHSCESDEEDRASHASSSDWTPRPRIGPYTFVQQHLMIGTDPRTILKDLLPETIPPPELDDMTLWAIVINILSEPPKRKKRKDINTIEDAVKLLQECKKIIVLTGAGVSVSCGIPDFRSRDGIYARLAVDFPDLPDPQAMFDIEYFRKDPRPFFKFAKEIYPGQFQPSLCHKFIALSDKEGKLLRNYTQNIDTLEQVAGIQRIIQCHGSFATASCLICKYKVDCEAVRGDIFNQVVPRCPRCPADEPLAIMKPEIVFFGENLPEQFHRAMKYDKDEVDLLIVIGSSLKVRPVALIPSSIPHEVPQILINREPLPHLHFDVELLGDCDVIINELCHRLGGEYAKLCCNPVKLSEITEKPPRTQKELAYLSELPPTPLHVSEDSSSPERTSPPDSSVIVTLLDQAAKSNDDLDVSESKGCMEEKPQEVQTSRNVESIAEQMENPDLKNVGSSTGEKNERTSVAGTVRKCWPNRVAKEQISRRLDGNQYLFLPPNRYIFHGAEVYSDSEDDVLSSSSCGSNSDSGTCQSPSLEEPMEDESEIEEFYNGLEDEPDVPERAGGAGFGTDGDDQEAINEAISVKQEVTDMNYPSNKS
Description: (§1) SIRT1 activation and inhibition assays were run in reaction buffer with 0.05% BSA at 25° C. and analyzed using the OAcADPr assay. Enzyme and compound were pre-incubated for 20 minutes before addition of substrates. […] The dose-dependence of five compounds was tested and the fold-activation data were described by Eq. 1
(§2) [formula] where vx/v0 is the ratio of the reaction rate in the presence (vx) versus absence (v0) of activator (X), RVmax is the relative velocity at infinite activator concentration, EC50 is the concentration of activator required to produce one-half RVmax and b is the minimum value of vx/v0.

full-length hSIRT1 WT = target: T2, full-length hSIRT1 WT (Homo sapiens, UniProt Q96EB6); details: for pEC50: hSIRT1 WT, activation dose-response, Ac-p53(W5) substrate
T2 construct: Full-length human SIRT1 (hSIRT1) proteins were expressed with a C-terminal His6 tag; His6 (C); made in house
T2 sequence (Q96EB6 1-747): T1 sequence (Q96EB6 1-747 Q222A) with A222Q
Description: as §1, §2

full-length hSIRT1 I223A = target: T3, full-length hSIRT1 I223A (Homo sapiens, UniProt Q96EB6, I223A); details: for pEC50: hSIRT1 I223A, activation dose-response, Ac-p53(W5) substrate
T3 construct: The following point mutants of full-length hSIRT1 were generated; His6 (C); made in house
T3 sequence (Q96EB6 1-747 I223A): T1 sequence (Q96EB6 1-747 Q222A) with A222Q, I223A
Description: as §1, §2

O=C(Nc1ccccn1)N1c2nc(-c3cccc(C(F)(F)F)c3)ccc2N2CC[C@H]1C2 [Example 7]
EC50 fold shift (mutant EC50/wild-type EC50) (full-length hSIRT1 Q222A): 0.91
RVmax fold shift = (wild-type RVmax−1)/(mutant RVmax−1) (full-length hSIRT1 Q222A): 0.98
pEC50 (full-length hSIRT1 Q222A): 5.70
EC50 fold shift (mutant EC50/wild-type EC50) (full-length hSIRT1 WT): 1.00
RVmax fold shift = (wild-type RVmax−1)/(mutant RVmax−1) (full-length hSIRT1 WT): 1.00
pEC50 (full-length hSIRT1 WT): 5.66
EC50 fold shift (mutant EC50/wild-type EC50) (full-length hSIRT1 I223A): 2.51
RVmax fold shift = (wild-type RVmax−1)/(mutant RVmax−1) (full-length hSIRT1 I223A): 6.90
pEC50 (full-length hSIRT1 I223A): 5.26

Cc1cnc2c(NC(=O)N3c4nc(-c5cccc(C(F)(F)F)c5)ccc4N4CC[C@H]3C4)cccc2n1 [Example 8]
EC50 fold shift (mutant EC50/wild-type EC50) (full-length hSIRT1 Q222A): 1.07
RVmax fold shift = (wild-type RVmax−1)/(mutant RVmax−1) (full-length hSIRT1 Q222A): 1.22
pEC50 (full-length hSIRT1 Q222A): 6.29
EC50 fold shift (mutant EC50/wild-type EC50) (full-length hSIRT1 WT): 1.00
RVmax fold shift = (wild-type RVmax−1)/(mutant RVmax−1) (full-length hSIRT1 WT): 1.00
pEC50 (full-length hSIRT1 WT): 6.32
EC50 fold shift (mutant EC50/wild-type EC50) (full-length hSIRT1 I223A): 4.91
RVmax fold shift = (wild-type RVmax−1)/(mutant RVmax−1) (full-length hSIRT1 I223A): 0.97
pEC50 (full-length hSIRT1 I223A): 5.63
